Results on two compounds are retold here after patent US6919188B1, “Pseudomycin production by Pseudomonas syringae” (Eli Lilly and Company, priority 1999, dated 2005).

“Also recorded” adds a separate entry of the source. Starred links: 1 amine or outer side, 2 acyl side, 3 side chain; linkers in the order of their positions; H or OH if unused. Positions of bridges follow the written chain, without caps; N, C: chain ends. Non-standard residues stand in square brackets, D forms with d. Residues, ends and D or L forms follow the SMILES beside them. ξ: configuration not given here. *: point of attachment. Tetradecanoyl(3R-OH) = CCCCCCCCCCC[C@@H](O)CC(=O)*; Asp(3S-OH) = N[C@H](C(=O)O)[C@H](O)C(=O)O; Thr(4-Cl) = N[C@H](C(=O)O)[C@H](O)CCl; ξAsp(3ξ-OH) = NC(C(=O)O)C(O)C(=O)O; X3 = O=C(C(N[*:1])C(O)CCl)[*:2]; X1 = CCCCCCCCCCC(O)C(O)CC(=O)*; aThr = C[C@H](O)[C@H](N)C(=O)O; X2 = C/C=C(/N[*:1])C(=O)[*:2]; dDab = NCC[C@@H](N)C(=O)O; Dab = NCC[CH](N)C(=O)O; Dhb = C/C=C(\N)C(=O)O

In series [1] the test system is fungi, including important fungal pathogens in both humans and plants. Conditions: isolated pseudomycins; spectrum of fungi; cited from earlier work.
Series [2] has the same test system. Nature of the series: Antifungal activity of isolated pseudomycins (general statements, literature). The class given is cell-based. The settings on record: comparison with pseudomycins A, C, certain fungi.
Series [3] can be described thus: Toxicity of pseudomycins (general statement). Conditions: no species or dose given.

For the compound `C/C=C1\NC(=O)[C@H]([C@H](C)O)NC(=O)[C@H](CCN)NC(=O)[C@H](CCCCN)NC(=O)[C@H](CC(=O)O)NC(=O)[C@@H](CCN)NC(=O)[C@@H](NC(=O)C[C@H](O)CCCCCCCCCCC)COC(=O)[C@H]([C@H](O)CCl)NC(=O)[C@H]([C@H](O)C(=O)O)NC1=O` [Pseudomycin B] ({Tetradecanoyl(3R-OH)}-S[dDab]DK[Dab][aThr][Dhb][Asp(3S-OH)][Thr(4-Cl)]; ester 1-C), in series [1], the antifungal activity result is “activity against a wide variety of fungi; also recorded: wide spectrum antifungal activity”. Further, the “potency against fungi compared to the other preferred pseudomycins” value in series [2] was “greater potency against certain fungi”. Moreover, the toxicity entry in series [3] is “generally acceptable toxicity; also recorded: lower level of toxicity”.

As for `C/C=C1/NC(=O)C(C(C)O)NC(=O)C(CCN)NC(=O)C(CCCCN)NC(=O)C(CC(=O)O)NC(=O)C(CCN)NC(=O)C(NC(=O)CC(O)C(O)CCCCCCCCCC)COC(=O)C(C(O)CCl)NC(=O)C(C(O)C(=O)O)NC1=O` (centres unmarked) [Pseudomycin A] (X1-S[Dab]DK[Dab]T[X2][ξAsp(3ξ-OH)][X3]; ester 1-C; configuration not given here), the antifungal activity entry in series [1] is on record as “activity against a wide variety of fungi; also recorded: wide spectrum antifungal activity”. Further, the toxicity result in series [3] is reported as “generally acceptable toxicity”.
